Values of other authors in patent US8557301B2, “Oral rehydration composition” (Drip Drop, Inc., priority 2011, dated 2013).

Tested on: net sodium and water absorption

O=C(CO)[C@@H](O)[C@H](O)[C@H](O)CO [fructose]
effect on potassium transport: stimulates potassium absorption | net sodium and water absorption stimulated, as much as glucose (relative to glucose): 66-100%
